What was measured:
Type in all cases: cell-based
[1] = tested on: PANC-1; experiment: SRB colorimetric cell growth inhibition assay, PANC-1
Outline: (§1)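 Cells are kept under uninterrupted exposure to compound. Staining with sulforhodamine B then measures cell growth and viability. Triplicate data give mean ± SD, from which growth inhibition, total growth inhibition and lethal concentration values follow.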

[2] = tested on: DU-145; experiment: SRB colorimetric cell growth inhibition assay, DU-145; conditions: DU-145
Outline: as §1

[3] = tested on: SKOV-3; experiment: SRB colorimetric cell growth inhibition assay, SKOV-3; conditions: Homo sapiens
Outline: (§2)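 Sulforhodamine B colorimetric assay of cell growth and viability, mean ± SD of triplicate wells. Parameters derived: GI (growth inhibition), TGI (total growth inhibition, cytostatic) and LC (cell killing, cytotoxic).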

[4] = tested on: LNCaP; experiment: SRB colorimetric cell growth inhibition assay, LNCaP; conditions: LN-caP
Outline: as §1

[5] = tested on: H-MEC-1; experiment: SRB colorimetric cell growth inhibition assay, H-MEC-1; conditions: Homo sapiens, HMEC-1, H-MEC-1
Outline: as §2

[6] = as above; conditions: human, H-MEC-1 cells; H-MEC-1; cell killing (cytotoxic effect); read-out: LC50 H-MEC-1
Outline: as §2

[7] = tested on: HT-29; experiment: SRB colorimetric cell growth inhibition assay, HT-29
Outline: as §1

[8] = tested on: K-562; experiment: SRB colorimetric cell growth inhibition assay, K-562
Outline: as §1

[9] = tested on: SK-BR-3; experiment: SRB colorimetric cell growth inhibition assay, SK-BR-3
Outline: as §1

[10] = tested on: IGROV-ET; experiment: SRB colorimetric cell growth inhibition assay, IGROV-ET (ET-743 resistant); conditions: IGROV-ET
Outline: as §1

[11] = tested on: LoVo; experiment: SRB colorimetric cell growth inhibition assay, LoVo
Outline: as §1

[12] = tested on: LoVo-Dox; experiment: SRB colorimetric cell growth inhibition assay, LoVo-Dox (MDR); conditions: LOVO-DOX
Outline: as §1

[13] = tested on: A-549; experiment: SRB colorimetric cell growth inhibition assay, A-549
Outline: as §1

[14] = tested on: SK-MEL-28; experiment: SRB colorimetric cell growth inhibition assay, SK-MEL-28
Outline: as §1

[15] = tested on: IGROV; experiment: SRB colorimetric cell growth inhibition assay, IGROV; conditions: IGROV
Outline: as §1

[16] = total growth inhibition (cytostatic effect)

Q: Which results are given for COc1cc(-c2c3c4cc(OC)c(OC(=O)[C@@H](N)Cc5ccccc5)cc4oc(=O)c3n3ccc4c(OC(=O)[C@@H](N)Cc5ccccc5)c(OC)c(OC)cc4c23)ccc1OC(=O)[C@@H](N)Cc1ccccc1 [Compound 31]?
A: CC50 ([1]; Homo sapiens, PANC-1, PANC-1, LC=cell killing (cytotoxic effect), read-out: LC50 PANC-1): 7.62 µM; IC (TGI) ([1]; Homo sapiens, PANC-1, PANC-1, TGI=total growth inhibition (cytostatic effect), read-out: TGI PANC-1): 7.62 µM; GI50 ([1]; PANC-1, GI=growth inhibition, read-out: GI50 PANC-1): 1.96 µM; GI50 ([2]; GI=growth inhibition, read-out: GI50 DU-145): 0.301 µM; CC50 ([2]; cell killing (cytotoxic effect), read-out: LC50 DU-145): 7.62 µM; TGI DU-145 [2, 16]: 8.61E−07 Molar; GI50 ([3]; SK-OV-3, SKOV-3, GI=growth inhibition, read-out: GI50 SKOV-3): 0.524 µM; LC50 (concentration causing 50% net cell killing) ([3]; SK-OV-3, SKOV-3, cell killing (cytotoxic effect), read-out: LC50 SKOV-3): 7.62 µM; IC (TGI) ([3]; SK-OV-3, SKOV-3, total growth inhibition (cytostatic effect), read-out: TGI SKOV-3): 4.22 µM; CC50 ([4]; Homo sapiens, LNCaP, cell killing (cytotoxic effect), read-out: LC50 LN-caP): 3.43 µM; IC (TGI) ([4]; Homo sapiens, LNCaP, total growth inhibition (cytostatic effect), read-out: TGI LN-caP): 1.45 µM; GI50 ([4]; GI=growth inhibition, read-out: GI50 LN-caP): 0.548 µM; GI50 ([5]; GI=growth inhibition, read-out: GI50 H-MEC-1): 0.119 µM; IC (TGI) ([5]; total growth inhibition (cytostatic effect), read-out: TGI H-MEC-1): 0.26 µM; LC50 (concentration giving 50% net cell killing) [6]: 0.565 µM; GI50 ([7]; HT-29, GI=growth inhibition, read-out: GI50 HT-29): 7.62 µM; CC50 ([7]; Homo sapiens, HT-29, HT-29, LC=cell killing (cytotoxic effect), read-out: LC50 HT-29): 7.62 µM; IC (TGI) ([7]; Homo sapiens, HT-29, HT-29, TGI=total growth inhibition (cytostatic effect), read-out: TGI HT-29): 7.62 µM; CC50 ([8]; Homo sapiens, K562, K-562, LC=cell killing (cytotoxic effect), read-out: LC50 K-562): 7.62 µM; IC (TGI) ([8]; Homo sapiens, K562, K-562, TGI=total growth inhibition (cytostatic effect), read-out: TGI K-562): 2.47 µM; GI50 ([8]; K-562, GI=growth inhibition, read-out: GI50 K-562): 0.41 µM; CC50 ([9]; Homo sapiens, SK-BR-3, SK-BR-3, cell killing (cytotoxic effect), read-out: LC50 SK-BR-3): 7.62 µM; GI50 ([9]; SK-BR-3, GI=growth inhibition, read-out: GI50 SK-BR-3): 1.8 µM; TGI SK-BR-3 ([9]; SK-BR-3, total growth inhibition (cytostatic effect)): 7.62E−06 Molar; GI50 ([10]; GI=growth inhibition, read-out: GI50 IGROV-ET): 1.39 µM; CC50 ([10]; cell killing (cytotoxic effect), read-out: LC50 IGROV-ET): 7.62 µM; TGI IGROV-ET [10, 16]: 4.00E−06 Molar; CC50 ([11]; Homo sapiens, LoVo, LC=cell killing (cytotoxic effect), read-out: LC50 LOVO): 7.62 µM; IC (TGI) ([11]; Homo sapiens, LoVo, TGI=total growth inhibition (cytostatic effect), read-out: TGI LOVO): 5.35 µM; GI50 ([11]; LOVO, GI=growth inhibition, read-out: GI50 LOVO): 1.98 µM; CC50 ([12]; Homo sapiens, LC=cell killing (cytotoxic effect), read-out: LC50 LOVO-DOX): 7.62 µM; IC (TGI) ([12]; Homo sapiens, TGI=total growth inhibition (cytostatic effect), read-out: TGI LOVO-DOX): 7.62 µM; GI50 ([12]; GI=growth inhibition, read-out: GI50 LOVO-DOX): 1.49 µM; GI50 ([13]; A-549, GI=growth inhibition, read-out: GI50 A-549): 0.433 µM; CC50 ([13]; Homo sapiens, A549, A-549, LC=cell killing (cytotoxic effect), read-out: LC50 A-549): 4.6 µM; IC (TGI) ([13]; Homo sapiens, A549, A-549, TGI=total growth inhibition (cytostatic effect), read-out: TGI A-549): 1.42 µM; CC50 ([14]; Homo sapiens, SK-MEL-28, MEL-28, cell killing (cytotoxic effect), read-out: LC50 MEL-28): 7.62 µM; GI50 ([14]; MEL-28, GI=growth inhibition, read-out: GI50 MEL-28): 0.482 µM; TGI MEL-28 ([14]; MEL-28, total growth inhibition (cytostatic effect)): 7.62E−06 Molar; GI50 ([15]; GI=growth inhibition, read-out: GI50 IGROV): 1.26 µM; CC50 ([15]; cell killing (cytotoxic effect), read-out: LC50 IGROV): 7.62 µM; TGI IGROV [15, 16]: 7.62E−06 Molar
